{"source": "patent US9290474B2", "about": "“Methods for making and using novel semi-synthetic small molecules for the treatment parasitic disease” (The Regents of the University of California, priority 2011, dated 2016)", "tested_on": "T. brucei brucei", "assay": "Screening against T. brucei (antiparasitic activity)", "type": "cell-based, Trypanosoma brucei", "settings": "initial screening", "data": [{"smiles": "CC1(C)C=CC(=O)[C@@]2(C)OOC3C[C@]12CCC3(O)CO", "note": "(stereo partly shown) [Merulin C, merulin C]", "values": [{"measurement": "activity against T. brucei brucei", "result": 0.8, "unit": "µM"}]}]}
